The source of these data is US20230117470A1, “SUBSTITUTED PYRAZOLE COMPOUNDS AS TOLL RECEPTOR INHIBITORS” (BRISTOL-MYERS SQUIBB COMPANY, priority 2019, published 2023).

Assay type in all cases: cell-based
Assay [1] addresses T1, human TLR7 (Homo sapiens, UniProt Q9NYK1).
T1 construct: host or cells: HEK-Blue cells
T1 sequence (Q9NYK1 27-1049): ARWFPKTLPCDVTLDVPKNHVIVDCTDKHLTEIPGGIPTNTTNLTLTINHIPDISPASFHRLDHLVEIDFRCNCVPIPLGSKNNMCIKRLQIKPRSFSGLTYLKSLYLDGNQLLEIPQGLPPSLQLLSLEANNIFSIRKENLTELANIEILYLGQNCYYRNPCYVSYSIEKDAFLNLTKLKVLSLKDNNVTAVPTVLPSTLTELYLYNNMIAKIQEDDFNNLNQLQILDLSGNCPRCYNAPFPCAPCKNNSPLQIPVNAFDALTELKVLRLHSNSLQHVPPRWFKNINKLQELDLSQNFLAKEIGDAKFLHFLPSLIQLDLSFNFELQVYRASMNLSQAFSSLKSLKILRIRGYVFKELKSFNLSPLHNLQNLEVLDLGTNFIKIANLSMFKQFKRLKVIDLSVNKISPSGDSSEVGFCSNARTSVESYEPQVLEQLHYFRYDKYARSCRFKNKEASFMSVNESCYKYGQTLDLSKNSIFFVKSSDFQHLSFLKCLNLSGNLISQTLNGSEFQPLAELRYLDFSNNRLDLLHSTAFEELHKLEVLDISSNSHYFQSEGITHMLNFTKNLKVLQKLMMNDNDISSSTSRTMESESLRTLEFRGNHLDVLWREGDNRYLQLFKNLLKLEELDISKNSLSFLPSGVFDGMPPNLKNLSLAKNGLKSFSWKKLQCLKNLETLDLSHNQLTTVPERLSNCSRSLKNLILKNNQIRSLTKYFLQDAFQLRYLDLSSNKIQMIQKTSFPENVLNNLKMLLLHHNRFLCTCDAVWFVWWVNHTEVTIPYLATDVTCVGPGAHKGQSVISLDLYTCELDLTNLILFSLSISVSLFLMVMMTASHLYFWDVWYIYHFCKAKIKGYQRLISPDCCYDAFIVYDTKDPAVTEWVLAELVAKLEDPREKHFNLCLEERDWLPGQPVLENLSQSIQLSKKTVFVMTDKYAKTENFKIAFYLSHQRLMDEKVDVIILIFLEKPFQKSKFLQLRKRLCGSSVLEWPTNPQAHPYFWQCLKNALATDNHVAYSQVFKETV
Kind of assay: TLR7 inhibition reporter assay (HEK-Blue cells, SEAP reporter, gardiquimod stimulation). The settings on record: HEK-Blue cells overexpressing human TLR7, SEAP reporter, gardiquimod 7.5 μM. The method in brief:
(§1)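 Percent inhibition of agonist-induced SEAP, set between agonist+DMSO wells and known-inhibitor wells, after 22 h at 37° C. Compounds (0.05 nM-50 μM final) were added 30 min at room temperature before ligand: gardiquimod 7.5 μM for TLR7, R848 15.9 μM for TLR8, ODN2006 5 nM for TLR9. Human receptors overexpressed in HEK-Blue reporter cells.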
On the technique in general: Reporter assays use an easily measured gene product as a stand-in for the process of interest.

Assay [2] addresses T2, human TLR8 (Homo sapiens, UniProt Q9NR97).
T2 construct: host or cells: HEK-Blue cells
T2 sequence (Q9NR97 27-1041): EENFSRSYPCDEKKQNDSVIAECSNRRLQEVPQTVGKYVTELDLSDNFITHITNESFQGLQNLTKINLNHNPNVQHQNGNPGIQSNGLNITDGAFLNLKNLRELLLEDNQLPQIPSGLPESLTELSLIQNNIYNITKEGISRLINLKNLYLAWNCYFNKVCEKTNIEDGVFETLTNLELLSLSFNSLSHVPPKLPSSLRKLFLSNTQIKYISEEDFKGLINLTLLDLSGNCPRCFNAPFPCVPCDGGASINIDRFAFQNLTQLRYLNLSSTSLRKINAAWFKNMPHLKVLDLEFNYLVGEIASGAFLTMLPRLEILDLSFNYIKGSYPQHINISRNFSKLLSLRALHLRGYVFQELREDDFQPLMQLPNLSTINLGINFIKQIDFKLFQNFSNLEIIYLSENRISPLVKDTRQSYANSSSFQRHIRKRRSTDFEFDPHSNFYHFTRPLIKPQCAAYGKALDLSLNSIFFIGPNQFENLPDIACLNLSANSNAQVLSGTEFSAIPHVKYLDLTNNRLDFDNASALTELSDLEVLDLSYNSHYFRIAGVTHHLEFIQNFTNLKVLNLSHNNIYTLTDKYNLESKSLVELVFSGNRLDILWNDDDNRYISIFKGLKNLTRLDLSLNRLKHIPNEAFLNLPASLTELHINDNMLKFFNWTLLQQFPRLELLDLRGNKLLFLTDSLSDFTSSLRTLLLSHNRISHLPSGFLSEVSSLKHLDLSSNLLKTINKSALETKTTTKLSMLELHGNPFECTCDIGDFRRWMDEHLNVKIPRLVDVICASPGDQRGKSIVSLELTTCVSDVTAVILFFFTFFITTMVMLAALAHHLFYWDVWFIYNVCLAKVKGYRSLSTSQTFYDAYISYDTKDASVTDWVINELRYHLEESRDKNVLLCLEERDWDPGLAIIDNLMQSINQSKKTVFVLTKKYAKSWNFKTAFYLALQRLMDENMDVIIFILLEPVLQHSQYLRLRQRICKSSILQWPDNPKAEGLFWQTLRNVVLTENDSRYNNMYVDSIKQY
Kind of assay: TLR8 inhibition reporter assay (HEK-Blue cells, SEAP reporter, R848 stimulation). The following applies: HEK-Blue cells overexpressing human TLR8, SEAP reporter, R848 15.9 μM. The procedure, abridged: as §1

Assay [3] deals with T3, human TLR9 (Homo sapiens, UniProt Q9NR96).
T3 construct: host or cells: HEK-Blue cells
T3 sequence (Q9NR96 26-1032): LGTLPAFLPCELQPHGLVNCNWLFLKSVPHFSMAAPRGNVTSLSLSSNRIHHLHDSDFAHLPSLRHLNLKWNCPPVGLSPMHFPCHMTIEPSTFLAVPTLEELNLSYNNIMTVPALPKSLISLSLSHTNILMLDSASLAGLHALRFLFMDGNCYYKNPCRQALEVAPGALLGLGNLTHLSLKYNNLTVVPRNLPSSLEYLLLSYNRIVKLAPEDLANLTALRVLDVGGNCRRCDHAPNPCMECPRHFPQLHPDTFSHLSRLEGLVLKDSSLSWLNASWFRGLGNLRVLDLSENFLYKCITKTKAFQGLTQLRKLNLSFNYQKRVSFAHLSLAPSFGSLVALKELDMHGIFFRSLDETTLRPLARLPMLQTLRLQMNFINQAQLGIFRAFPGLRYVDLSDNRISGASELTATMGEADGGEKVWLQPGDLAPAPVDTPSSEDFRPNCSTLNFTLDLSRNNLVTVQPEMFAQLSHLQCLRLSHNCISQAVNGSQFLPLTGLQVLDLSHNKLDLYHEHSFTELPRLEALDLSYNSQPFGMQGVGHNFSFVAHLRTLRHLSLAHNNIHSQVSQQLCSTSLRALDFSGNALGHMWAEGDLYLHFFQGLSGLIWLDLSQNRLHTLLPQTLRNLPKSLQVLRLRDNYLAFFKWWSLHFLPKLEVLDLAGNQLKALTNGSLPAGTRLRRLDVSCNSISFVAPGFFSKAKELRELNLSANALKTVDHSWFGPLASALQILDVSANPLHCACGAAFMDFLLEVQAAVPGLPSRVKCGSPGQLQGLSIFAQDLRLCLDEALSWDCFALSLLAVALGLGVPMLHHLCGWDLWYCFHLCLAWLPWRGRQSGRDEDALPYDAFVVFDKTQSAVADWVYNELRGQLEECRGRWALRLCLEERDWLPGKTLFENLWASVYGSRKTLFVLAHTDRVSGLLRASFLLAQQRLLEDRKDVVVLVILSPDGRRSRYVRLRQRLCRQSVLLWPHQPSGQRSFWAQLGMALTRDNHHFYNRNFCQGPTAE
Briefly: TLR9 inhibition reporter assay (HEK-Blue cells, SEAP reporter, ODN2006 stimulation). The settings on record: HEK-Blue cells overexpressing human TLR9, SEAP reporter, ODN2006 5 nM. The procedure, abridged:
as §1

In general, IC50 refers to the concentration that inhibits the measured activity by half.

In the case of `Cc1cc(-c2[nH]nc(C(=O)N(C)C)c2C(C)C)cn2ncnc12` [Example 31], the IC50 in assay [1] was 3.98 nM; in assay [2], 3.02 nM; in assay [3], more than 50000 nM.
In the same order, the values of `Cc1cc(-c2[nH]nc(C(=O)NC3CCC(O)CC3)c2C(C)C)cn2ncnc12` (stereo not drawn) [Example 32] are 3.41 nM, 15.9 nM and more than 50000 nM.
In the case of `Cc1c(-c2[nH]nc(C(=O)NC3CCN(C(C)C)CC3)c2C(C)C)cn2ncnc2c1C` [Example 33], the figures for the IC50 in assay [1], in assay [2] and in assay [3] were 3.86 nM, 1.52 nM and more than 50000 nM, respectively.
In the same order, the values of `COc1ccc(-c2[nH]nc(C(=O)NC3CCN(C(C)C)CC3)c2C(C)C)cc1OC` [Example 34] are 4.44 nM, 4.94 nM and more than 50000 nM.
On the same counts, the results for `CC(C)c1c(C(=O)NC2CCN(C(C)C)CC2)n[nH]c1-c1ccnc2[nH]ncc12` [Example 35] are 2.77 nM, 0.79 nM and 4350 nM.
In the same order, the values of `Cc1cc(-c2[nH]nc(C(=O)NC3CCN(C(C)C)CC3)c2C(C)C)cc(C)n1` [Example 36] are 1300 nM, 1540 nM and 25200 nM.
With `Cc1cc(-c2[nH]nc(C(=O)NC3CCN(C(C)C)CC3)c2C(C)C)cn2ccnc12` [Example 37], the IC50 in assay [1] came out at 12.1 nM; in assay [2], 27 nM; in assay [3], 27900 nM.
On the same counts, the results for `Cc1cc(-c2[nH]nc(C(=O)NC3CCN(C(C)C)CC3)c2C(C)C)ccn1` [Example 38] are 7.93 nM, 4.43 nM and 2280 nM.
In the same order, the values of `Cc1cc(-c2[nH]nc(C(=O)NC3CCN(C(C)C)CC3)c2C(C)C)cn(C)c1=O` [Example 39] are 8.31 nM, 25.5 nM and 3560 nM.
In the same order, the values of `CC(C)c1c(C(=O)NC2CCN(C(C)C)CC2)n[nH]c1-c1ccc(C#N)c2ncccc12` [Example 40] are 29.9 nM, 31.1 nM and 18900 nM.
In the case of `CC(C)c1c(C(=O)NC2CCN(C)CC2)n[nH]c1-c1cn(C)c2ncccc12` [Example 41], the results for the IC50 in assay [1], in assay [2] and in assay [3] were 1.19 nM, 2.66 nM and 8430 nM, respectively.
In the same order, the values of `CC(C)c1c(C(=O)NC2CCN(C(C)C)CC2)n[nH]c1-c1cn(C)c2ncccc12` [Example 42] are 2.99 nM, 6.77 nM and 19000 nM.
On the same counts, the results for `Cc1cc(-c2[nH]nc(C(=O)NC3CCNCC3)c2C(C)C)cn2ncnc12` [Example 43, 4-isopropyl-5-(8-methyl-[1,2,4]triazolo[1,5-a]pyridin-6-yl)-N-(piperidin-4-yl)-1H-pyrazole-3-carboxamide] are 2.54 nM, 5.22 nM and more than 50000 nM.
On the same counts, the results for `Cc1cc(-c2[nH]nc(C(=O)NCC3CCNCC3)c2C(C)C)cn2ncnc12` [Example 45] are 1.84 nM, 19.5 nM and 45400 nM.
For the compound `Cc1cc(-c2[nH]nc(C(=O)N[C@H]3CC[C@H](N)CC3)c2C(C)C)cn2ncnc12` [Example 46], the IC50 in assay [1] stood at 0.57 nM; in assay [2], 0.11 nM; in assay [3], 2500 nM.
In the same order, the values of `Cc1cc(-c2[nH]nc(C(=O)NC[C@H]3CC[C@H](N)CC3)c2C(C)C)cn2ncnc12` [Example 47] are 2.92 nM, 0.56 nM and 6840 nM.
`Cc1cc(-c2[nH]nc(C(=O)NCC3CNC3)c2C(C)C)cn2ncnc12` [Example 49]: the IC50 in assay [1] amounted to 0.97 nM; in assay [2], 0.48 nM; in assay [3], 9220 nM.
On the same counts, the results for `Cc1cc(-c2[nH]nc(C(=O)N[C@@H]3CCNC3)c2C(C)C)cn2ncnc12` [Example 50] are 1.27 nM, 2.74 nM and 17300 nM.
